Assays:
Test in all cases: Kinase selectivity, scanMAX Kinase assay panel (DiscoverX), % control at 1 uM
Assay type in all cases: binding
[1] = molecular target: T1, scanMAX Kinase assay panel (Homo sapiens, UniProt Q86UE8); conditions: TLK2; 1 uM; read-out: Percent Control (%)
T1 construct: purchased DiscoverX
In short: (§1)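 Each kinase was first exposed to the test compound at 1 uM in DMSO. Signal was then normalised to positive and negative controls to give % control. Finally, any enzyme showing <35% control was judged inhibited.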

[2] = molecular target: T2, scanMAX Kinase assay panel (Homo sapiens, UniProt Q59H18); conditions: TNNI3K; 1 uM; read-out: Percent Control (%)
T2 construct: purchased DiscoverX
T2 sequence (Q59H18 1-835): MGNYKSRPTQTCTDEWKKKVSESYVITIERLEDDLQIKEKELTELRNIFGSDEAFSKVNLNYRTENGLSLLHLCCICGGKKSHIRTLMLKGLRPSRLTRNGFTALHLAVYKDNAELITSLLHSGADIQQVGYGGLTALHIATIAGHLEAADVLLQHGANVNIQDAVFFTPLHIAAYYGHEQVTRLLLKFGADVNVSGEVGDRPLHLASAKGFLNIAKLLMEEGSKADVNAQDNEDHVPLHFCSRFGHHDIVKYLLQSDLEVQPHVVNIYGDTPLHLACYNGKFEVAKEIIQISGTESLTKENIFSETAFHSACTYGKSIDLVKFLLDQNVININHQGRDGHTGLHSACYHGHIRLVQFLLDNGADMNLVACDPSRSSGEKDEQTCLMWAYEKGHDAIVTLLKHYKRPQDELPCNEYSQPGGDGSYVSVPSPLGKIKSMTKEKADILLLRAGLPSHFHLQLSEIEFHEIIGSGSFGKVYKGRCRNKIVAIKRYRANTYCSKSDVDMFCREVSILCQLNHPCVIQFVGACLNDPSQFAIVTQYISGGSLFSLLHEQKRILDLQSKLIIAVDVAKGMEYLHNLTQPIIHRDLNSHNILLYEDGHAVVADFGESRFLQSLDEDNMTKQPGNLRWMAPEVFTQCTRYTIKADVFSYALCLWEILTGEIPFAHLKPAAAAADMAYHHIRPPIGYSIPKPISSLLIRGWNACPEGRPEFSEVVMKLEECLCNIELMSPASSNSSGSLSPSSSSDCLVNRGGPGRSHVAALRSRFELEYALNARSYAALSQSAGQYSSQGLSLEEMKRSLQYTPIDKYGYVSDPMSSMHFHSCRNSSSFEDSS
In short: as §1

[3] = molecular target: T3, scanMAX Kinase assay panel (Homo sapiens, UniProt Q9BZL6); conditions: PRKD2; 1 uM; read-out: Percent Control (%)
T3 construct: purchased DiscoverX
T3 sequence (Q9BZL6 1-878): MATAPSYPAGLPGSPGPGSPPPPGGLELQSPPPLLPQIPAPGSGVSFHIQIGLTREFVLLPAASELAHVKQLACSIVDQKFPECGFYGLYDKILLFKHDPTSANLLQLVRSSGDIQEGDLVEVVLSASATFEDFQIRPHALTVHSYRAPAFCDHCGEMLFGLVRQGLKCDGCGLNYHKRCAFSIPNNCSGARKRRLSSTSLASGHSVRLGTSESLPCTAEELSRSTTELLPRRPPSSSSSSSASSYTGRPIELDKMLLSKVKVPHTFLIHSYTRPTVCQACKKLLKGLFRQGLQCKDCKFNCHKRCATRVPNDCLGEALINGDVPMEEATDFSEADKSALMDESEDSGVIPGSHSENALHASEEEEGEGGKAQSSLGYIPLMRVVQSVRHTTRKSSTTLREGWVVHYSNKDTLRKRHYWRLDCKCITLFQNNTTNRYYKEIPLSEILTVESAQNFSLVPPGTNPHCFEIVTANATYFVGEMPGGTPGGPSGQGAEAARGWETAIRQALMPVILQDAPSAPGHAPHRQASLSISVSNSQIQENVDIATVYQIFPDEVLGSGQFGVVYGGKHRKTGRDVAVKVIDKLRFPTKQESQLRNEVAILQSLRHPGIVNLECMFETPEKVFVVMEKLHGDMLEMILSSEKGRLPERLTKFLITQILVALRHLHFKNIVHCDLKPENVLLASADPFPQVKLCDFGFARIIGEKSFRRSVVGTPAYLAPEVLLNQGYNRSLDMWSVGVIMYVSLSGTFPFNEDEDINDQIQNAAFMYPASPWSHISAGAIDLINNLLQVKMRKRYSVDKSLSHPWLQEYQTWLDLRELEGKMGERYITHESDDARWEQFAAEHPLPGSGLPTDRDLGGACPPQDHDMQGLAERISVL
In short: as §1

[4] = molecular target: T4, scanMAX Kinase assay panel (Homo sapiens, UniProt Q9UEE5); conditions: DRAK1; 1 uM; read-out: Percent Control (%)
T4 construct: purchased DiscoverX
T4 sequence (Q9UEE5 1-414): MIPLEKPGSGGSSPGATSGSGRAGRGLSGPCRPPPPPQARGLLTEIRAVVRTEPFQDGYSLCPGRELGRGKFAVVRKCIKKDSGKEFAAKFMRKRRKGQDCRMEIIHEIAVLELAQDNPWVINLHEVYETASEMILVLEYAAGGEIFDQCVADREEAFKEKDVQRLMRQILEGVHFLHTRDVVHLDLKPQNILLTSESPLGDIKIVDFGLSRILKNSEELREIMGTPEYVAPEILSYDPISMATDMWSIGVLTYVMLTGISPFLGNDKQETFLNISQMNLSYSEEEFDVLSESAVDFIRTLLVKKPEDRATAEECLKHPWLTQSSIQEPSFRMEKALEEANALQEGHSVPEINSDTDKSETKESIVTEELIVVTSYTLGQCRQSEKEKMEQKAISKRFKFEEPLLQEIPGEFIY
In short: as §1

T1 sequence (Q86UE8 whole entry): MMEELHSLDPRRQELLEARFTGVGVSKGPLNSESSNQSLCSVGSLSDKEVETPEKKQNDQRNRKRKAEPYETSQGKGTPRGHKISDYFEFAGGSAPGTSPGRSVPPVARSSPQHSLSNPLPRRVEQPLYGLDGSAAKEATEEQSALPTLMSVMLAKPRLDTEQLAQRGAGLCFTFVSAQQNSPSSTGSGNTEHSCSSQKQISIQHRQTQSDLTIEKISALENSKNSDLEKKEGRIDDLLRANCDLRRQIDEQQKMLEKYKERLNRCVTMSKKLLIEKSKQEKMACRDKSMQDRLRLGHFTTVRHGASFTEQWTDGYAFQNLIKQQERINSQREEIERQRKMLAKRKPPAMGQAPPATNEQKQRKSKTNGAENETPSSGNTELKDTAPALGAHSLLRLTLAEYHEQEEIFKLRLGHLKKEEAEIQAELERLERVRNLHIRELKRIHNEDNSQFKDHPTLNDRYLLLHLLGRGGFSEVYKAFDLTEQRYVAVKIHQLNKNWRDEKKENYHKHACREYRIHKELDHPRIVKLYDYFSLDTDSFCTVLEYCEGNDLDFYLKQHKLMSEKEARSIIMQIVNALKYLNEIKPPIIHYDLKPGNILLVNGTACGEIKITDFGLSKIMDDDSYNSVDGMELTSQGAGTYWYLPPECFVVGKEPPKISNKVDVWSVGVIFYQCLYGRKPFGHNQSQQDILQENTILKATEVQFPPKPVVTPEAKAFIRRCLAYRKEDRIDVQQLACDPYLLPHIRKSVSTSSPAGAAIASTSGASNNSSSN

Compound	remaining binding at 1 µM [1]	remaining binding at 1 µM [2]	remaining binding at 1 µM [3]	remaining binding at 1 µM [4]
Cc1ccc(NC(=O)C2(C(=O)Nc3ccc(F)cc3)CC2)cc1C#Cc1cnc2c(Nc3cnn(C(C)C)c3)cccn12 [Example 78]	100%	93%	95%	100%
Cc1cn(-c2cc(NC(=O)c3ccc(C)c(C#Cc4cnc5c(Nc6cnn(C)c6)cccn45)c3)cc(C(F)(F)F)c2)cn1 [Example 12, 4-methyl-N-(3-(4-methyl-1H-imidazol-1-yl)-5-(trifluoromethyl)phenyl)-3-((8-((1-methyl-1H-pyrazol-4-yl)amino)imidazo[1,2-a]pyridin-3-yl)ethynyl)benzamide]	97%	25%	98%	100%
Cc1ccc(C(=O)Nc2ccc(CN3CCN(C)CC3)c(C(F)(F)F)c2)cc1C#Cc1cnc2c(Nc3cnn(C)c3)cccn12 [Example 1, 4-methyl-3-((8-((1-methyl-1H-pyrazol-4-yl)amino)imidazo[1,2-a]pyridin-3-yl)ethynyl)-N-(4-((4-methylpiperazin-1-yl)methyl)-3-(trifluoromethyl)phenyl)benzamide]	86%	0%	41%	98%

— US10870647B2, “Imidazopyridine derivative, method for preparing same, and pharmaceutical composition containing same as active ingredient for preventing or treating cancer” (DAEGU-GYEONGBUK MEDICAL INNOVATION FOUNDATION, priority 2016, dated 2020)
